Experiment: wn = mass fraction of the nth substance listed

CC(F)(F)F [1,1,1-trifluoroethane] + FCC(F)(F)F
Conditions	surface tension liquid-gas [mN/m]
256.91 K, w1 = 0.7511	10.69
257.03 K, w1 = 0.263	12.6
257.14 K, w1 = 0.5656	11.49
258.79 K, w1 = 0.7508	10.37
258.87 K, w1 = 0.2627	12.39
260.95 K, w1 = 0.565	10.86
261 K, w1 = 0.7503	10.13
262.96 K, w1 = 0.75	9.8
263.05 K, w1 = 0.5646	10.49
264.97 K, w1 = 0.2618	11.46
264.97 K, w1 = 0.7496	9.615
265.07 K, w1 = 0.5643	10.39
266.84 K, w1 = 0.564	10.02
267.09 K, w1 = 0.7491	9.245
268.62 K, w1 = 0.7488	9.17
268.83 K, w1 = 0.2611	10.94
268.92 K, w1 = 0.5636	9.81
270.52 K, w1 = 0.5633	9.46
270.6 K, w1 = 0.7484	8.84
271.15 K, w1 = 0.2607	10.62
273.07 K, w1 = 0.5628	9.14
273.2 K, w1 = 0.2604	10.39
273.23 K, w1 = 0.7478	8.49
274.99 K, w1 = 0.5625	8.825
275.4 K, w1 = 0.7473	8.26
275.43 K, w1 = 0.26	10.06
277.04 K, w1 = 0.2597	9.845
277.27 K, w1 = 0.562	8.575
278.99 K, w1 = 0.5617	8.35
279.15 K, w1 = 0.2593	9.5
279.35 K, w1 = 0.7463	7.755
281.43 K, w1 = 0.2589	9.23
281.48 K, w1 = 0.5612	8
281.54 K, w1 = 0.7458	7.46
282.89 K, w1 = 0.2586	9.01
283.35 K, w1 = 0.5608	7.755
283.39 K, w1 = 0.7453	7.25
285.2 K, w1 = 0.5604	7.465
285.24 K, w1 = 0.2581	8.695
285.45 K, w1 = 0.7448	6.985
287.35 K, w1 = 0.5599	7.295
287.39 K, w1 = 0.7443	6.725
287.4 K, w1 = 0.2577	8.415
289.05 K, w1 = 0.7438	6.5
289.29 K, w1 = 0.5595	7.115
289.31 K, w1 = 0.2573	8.23
291.17 K, w1 = 0.7432	6.23
291.2 K, w1 = 0.5591	6.82
291.37 K, w1 = 0.2569	8.03
293.21 K, w1 = 0.2565	7.725
293.45 K, w1 = 0.2564	7.57
293.49 K, w1 = 0.5585	6.47
293.71 K, w1 = 0.7425	5.82
295.16 K, w1 = 0.5582	6.13
295.56 K, w1 = 0.7419	5.58
295.58 K, w1 = 0.256	7.285
297.38 K, w1 = 0.2556	7.06
297.49 K, w1 = 0.7413	5.375
297.52 K, w1 = 0.5576	5.875
299.41 K, w1 = 0.7407	5.14
299.51 K, w1 = 0.5571	5.72
299.53 K, w1 = 0.2552	6.855
301.41 K, w1 = 0.7401	4.89
301.53 K, w1 = 0.2547	6.585
302.95 K, w1 = 0.5563	5.335
303.65 K, w1 = 0.7394	4.63
303.66 K, w1 = 0.2542	6.325
305.21 K, w1 = 0.5557	5.055
305.38 K, w1 = 0.7388	4.425
305.56 K, w1 = 0.2538	6.13
307.4 K, w1 = 0.5552	4.755
307.46 K, w1 = 0.2534	5.835
307.74 K, w1 = 0.738	4.17
309.3 K, w1 = 0.5547	4.56
309.6 K, w1 = 0.2529	5.585
309.65 K, w1 = 0.7373	3.97
311.25 K, w1 = 0.2525	5.385
311.41 K, w1 = 0.5541	4.29
311.44 K, w1 = 0.7367	3.755
313.47 K, w1 = 0.736	3.5
313.55 K, w1 = 0.252	5.095
313.61 K, w1 = 0.5536	4.03
315.3 K, w1 = 0.5531	3.825
315.54 K, w1 = 0.7352	3.3
315.59 K, w1 = 0.2515	4.85
317.36 K, w1 = 0.2511	4.66
317.41 K, w1 = 0.5525	3.605
317.57 K, w1 = 0.7345	3.11
319.33 K, w1 = 0.552	3.415
319.39 K, w1 = 0.7338	2.875
319.66 K, w1 = 0.2506	4.41
321.23 K, w1 = 0.7331	2.685
321.33 K, w1 = 0.5515	3.18
322.01 K, w1 = 0.25	4.12
323.26 K, w1 = 0.2497	4
323.33 K, w1 = 0.7323	2.44
323.42 K, w1 = 0.5509	2.925
325.17 K, w1 = 0.5505	2.75
325.28 K, w1 = 0.7315	2.25
325.69 K, w1 = 0.2492	3.67
327.33 K, w1 = 0.2488	3.545
327.36 K, w1 = 0.7306	2.065
327.38 K, w1 = 0.5498	2.53
329.42 K, w1 = 0.7298	1.81
329.44 K, w1 = 0.5493	2.32

Source: the NIST ThermoML archive (doi:10.1021/je0342163)
